Experimental findings from patent US20230227447A1, “BENZYLAMINE DERIVATIVES AS DDRS INHIBITORS” (CHIESI FARMACEUTICI S.P.A., priority 2020, published 2023) are described below.

One assay deals with T1, DDR2 (Homo sapiens, UniProt Q16832).
T1 sequence (Q16832 22-855): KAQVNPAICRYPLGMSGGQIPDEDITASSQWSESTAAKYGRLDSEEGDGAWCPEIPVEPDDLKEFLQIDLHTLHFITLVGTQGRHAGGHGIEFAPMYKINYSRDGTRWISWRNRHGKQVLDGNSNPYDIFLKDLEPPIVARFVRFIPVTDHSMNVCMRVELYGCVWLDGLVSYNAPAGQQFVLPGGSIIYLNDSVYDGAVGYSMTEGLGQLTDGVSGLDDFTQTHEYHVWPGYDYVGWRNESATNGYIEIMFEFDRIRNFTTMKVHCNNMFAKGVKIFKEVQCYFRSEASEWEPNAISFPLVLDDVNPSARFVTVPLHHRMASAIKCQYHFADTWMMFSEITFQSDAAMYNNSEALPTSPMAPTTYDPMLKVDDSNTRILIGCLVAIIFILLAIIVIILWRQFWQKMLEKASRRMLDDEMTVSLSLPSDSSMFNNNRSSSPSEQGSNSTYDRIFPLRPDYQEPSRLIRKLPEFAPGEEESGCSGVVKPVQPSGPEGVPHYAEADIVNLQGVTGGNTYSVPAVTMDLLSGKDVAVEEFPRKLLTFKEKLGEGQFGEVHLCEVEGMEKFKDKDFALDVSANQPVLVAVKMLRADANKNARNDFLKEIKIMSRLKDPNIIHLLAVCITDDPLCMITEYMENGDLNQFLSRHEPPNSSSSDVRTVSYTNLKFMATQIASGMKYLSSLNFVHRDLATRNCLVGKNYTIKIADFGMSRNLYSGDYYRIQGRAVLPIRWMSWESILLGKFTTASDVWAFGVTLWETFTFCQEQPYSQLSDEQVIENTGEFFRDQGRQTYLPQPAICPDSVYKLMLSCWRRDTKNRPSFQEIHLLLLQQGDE
Put plainly: DDR2 binding assay (LanthaScreen Europium Kinase Binding assay). Details: purchased Life Technologies. The following applies: 5 nM DDR2, 10 nM Kinase Tracer 178, 1 hour at room temperature; Ki from IC50 by Cheng-Prusoff. The procedure:
(§1) DDR1 and DDR2 binding assays were performed using Life Technologies LanthaScreen™ Europium Kinase Binding assay. The compounds were incubated with 5 nM DDR1 (Carna Biosciences) or 5 nM DDR2 (Life Technologies) for 1 hour at room temperature in white 384-well OptiPlate (PerkinElmer), containing 20 nM or 10 nM Kinase Tracer 178 respectively and 2 nM Europium labelled anti-GST antibody (Life Technologies) in assay buffer (50 mM HEPES pH 7.5, 10 mM MgCl2, 1 mM EGTA and 0.01% BRIJ35).
(§2) The ratio of fluorescence emission 665 nm/615 nm after excitation at 340 nm was obtained using the Tecan Spark 20M plate reader. IC50 values were determined in GraphPad Prism 7.0 software, using 4 parameter model: log(inhibitor) vs. response. IC50 values were converted in Ki using the Cheng-Prusoff equation (Ki=IC50/(1+[Tracer]/Kd).
A general note: In TR-FRET formats the signal depends on donor and acceptor labels being close together.

In the next assay the target is DDR1 (Homo sapiens, UniProt Q08345). As to the kind of experiment: DDR1 binding assay (LanthaScreen Europium Kinase Binding assay). Details: purchased Carna Biosciences. The note with it: 5 nM DDR1, 20 nM Kinase Tracer 178, 1 hour at room temperature; Ki from IC50 by Cheng-Prusoff. The procedure:
as §1, §2

A word on the pKi: it is the Ki on a negative log10 scale, so that one unit is a factor of ten.

pKi: −log10 of the molar value. Where only a bound is given, the exact number is not on record here.

Sequence of DDR1 (Q08345 19-913): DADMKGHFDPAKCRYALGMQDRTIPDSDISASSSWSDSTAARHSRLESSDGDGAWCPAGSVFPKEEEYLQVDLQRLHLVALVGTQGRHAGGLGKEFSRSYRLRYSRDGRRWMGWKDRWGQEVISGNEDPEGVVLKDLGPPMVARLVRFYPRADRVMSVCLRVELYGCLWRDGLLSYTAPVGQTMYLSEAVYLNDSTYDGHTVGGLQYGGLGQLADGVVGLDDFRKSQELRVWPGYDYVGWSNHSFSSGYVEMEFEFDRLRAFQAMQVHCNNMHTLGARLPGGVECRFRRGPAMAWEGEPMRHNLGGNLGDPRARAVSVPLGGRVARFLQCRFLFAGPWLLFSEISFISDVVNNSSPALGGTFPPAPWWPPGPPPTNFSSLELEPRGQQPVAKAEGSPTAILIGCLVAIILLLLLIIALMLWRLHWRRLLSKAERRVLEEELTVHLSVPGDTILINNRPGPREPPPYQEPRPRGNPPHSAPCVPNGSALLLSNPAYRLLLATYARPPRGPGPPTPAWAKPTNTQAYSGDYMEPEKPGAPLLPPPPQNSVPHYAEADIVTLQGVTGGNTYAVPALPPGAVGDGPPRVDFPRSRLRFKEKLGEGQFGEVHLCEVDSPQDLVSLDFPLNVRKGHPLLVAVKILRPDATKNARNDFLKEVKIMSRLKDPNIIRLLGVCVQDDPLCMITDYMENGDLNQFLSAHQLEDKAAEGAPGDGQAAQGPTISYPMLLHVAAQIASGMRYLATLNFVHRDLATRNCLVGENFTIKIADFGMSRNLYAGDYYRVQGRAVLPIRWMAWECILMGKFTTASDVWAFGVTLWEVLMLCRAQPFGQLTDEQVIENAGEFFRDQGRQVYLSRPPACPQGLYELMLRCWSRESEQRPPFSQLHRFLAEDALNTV

As to `Cc1ccc(NC(=O)c2cc(CN3CCN(C)CC3)cc(C(F)(F)F)c2)cc1CNCc1cncnc1` [Example 11, N-(4-methyl-3-(((pyrimidin-5-ylmethyl)amino)methyl)phenyl)-3-((4-methylpiperazin-1-yl)methyl)-5-(trifluoromethyl)benzamide], the negative-log Ki (pKi) on DDR2 and at DDR1 was 6.00 to 6.52 each time.

As to `CC(C)c1ccc(C(=O)Nc2cc(CN3CCN(C)CC3)cc(C(F)(F)F)c2)cc1CNc1cnc2ccnn2c1` [Example 16, 4-isopropyl-N-(3-((4-methylpiperazin-1-yl)methyl)-5-(trifluoromethyl)phenyl)-3-((pyrazolo[1,5-a]pyrimidin-6-ylamino)methyl)benzamide], the negative-log Ki (pKi) at DDR2 and on DDR1 was 6.52 to 7.52 each time.

As to `CC(C)c1ccc(C(=O)Nc2cc(CN3CCN(C)CC3)cc(C(F)(F)F)c2)cc1CNc1cncnc1` [Example 30, 4-isopropyl-N-(3-((4-methylpiperazin-1-yl)methyl)-5-(trifluoromethyl)phenyl)-3-((pyrimidin-5-ylamino)methyl)benzamide], the negative logarithm of the Ki (pKi) at DDR2 and on DDR1 was above 7.52 each time.

On to `CNC(=O)c1cc(NCc2cc(C(=O)Nc3cc(-n4cnc(C)c4)cc(C(F)(F)F)c3)ccc2C)ccn1` [Example 23, N-methyl-4-((2-methyl-5-((3-(4-methyl-1H-imidazol-1-yl)-5-(trifluoromethyl)phenyl)carbamoyl)benzyl)amino)picolinamide], for which the negative-log Ki (pKi) at DDR2 and on DDR1 was above 7.52 each time.

With `CNC(=O)c1cc(CNCc2cc(NC(=O)c3cc(CN4CCN(C)CC4)cc(C(F)(F)F)c3)ccc2C)ccn1` [Example 14, N-methyl-4-(((2-methyl-5-(3-((4-methylpiperazin-1-yl)methyl)-5-(trifluoromethyl)benzamido)benzyl)amino)methyl)picolinamide], the negative-log Ki (pKi) at DDR2 and at DDR1 was 6.52 to 7.52 in each case.

Consider `Cc1ccc(C(=O)Nc2cc(CN3CCN(C)CC3)cc(C(F)(F)F)c2)cc1CNC(=O)c1cnc2[nH]ccc2c1` [Example 26, N-(2-methyl-5-((3-((4-methylpiperazin-1-yl)methyl)-5-(trifluoromethyl)phenyl)carbamoyl)benzyl)-1H-pyrrolo[2,3-b]pyridine-5-carboxamide], for which the pKi at DDR2 and on DDR1 was above 7.52 in each case.

Regarding `O=C(Nc1cccc(C(F)(F)F)c1)c1ccc(F)c(CNc2cnc3[nH]ccc3c2)c1` [Example 33, 3-(((1H-pyrrolo[2,3-b]pyridin-5-yl)amino)methyl)-4-fluoro-N-(3-(trifluoromethyl)phenyl)benzamide], the pKi at DDR2 and at DDR1 was above 7.52 each time.

`Cc1cn(-c2cc(NC(=O)c3ccc(C)c(CNc4ccc(C#N)cn4)c3)cc(C(F)(F)F)c2)cn1` [Example 8, 3-(((5-cyanopyridin-2-yl)amino)methyl)-4-methyl-N-(3-(4-methyl-1H-imidazol-1-yl)-5-(trifluoromethyl)phenyl)benzamide]: the pKi at DDR2 and on DDR1 was 6.52 to 7.52 throughout.

For `CC(C)c1ccc(C(=O)Nc2cc(CN3CCN(C)CC3)cc(C(F)(F)F)c2)cc1CNC(=O)c1cnc2[nH]ccc2c1` [Example 27, N-(2-isopropyl-5-((3-((4-methylpiperazin-1-yl)methyl)-5-(trifluoromethyl)phenyl)carbamoyl)benzyl)-1H-pyrrolo[2,3-b]pyridine-5-carboxamide], the pKi on DDR2 and on DDR1 was 6.00 to 6.52 each time.

Consider `Cc1ccc(NC(=O)c2cc(CN3CCN(C)CC3)cc(C(F)(F)F)c2)cc1CN(Cc1cnc2ccccn12)Cc1cnc2ccccn12` [Example 12, N-(3-((bis(imidazo[1,2-a]pyridin-3-ylmethyl)amino)methyl)-4-methylphenyl)-3-((4-methylpiperazin-1-yl)methyl)-5-(trifluoromethyl)benzamide], for which the pKi was 6.52 to 7.52 at DDR2 and above 7.52 on DDR1.

As for `Cc1ccc(C(=O)Nc2cc(CN3CCN(C)CC3)cc(C(F)(F)F)c2)cc1CNc1cncnc1` [Example 19, 4-methyl-N-(3-((4-methylpiperazin-1-yl)methyl)-5-(trifluoromethyl)phenyl)-3-((pyrimidin-5-ylamino)methyl)benzamide], the pKi at DDR2 and on DDR1 was above 7.52 throughout.

As for `CNC(=O)c1cc(NCc2cc(NC(=O)c3cc(CN4CCN(C)CC4)cc(C(F)(F)F)c3)ccc2C)ccn1` [Example 10, N-methyl-4-((2-methyl-5-(3-((4-methylpiperazin-1-yl)methyl)-5-(trifluoromethyl)benzamido)benzyl)amino)picolinamide], the negative-log Ki (pKi) on DDR2 was 6.52 to 7.52; at DDR1 it was above 7.52.

For the molecule `Cc1ccc(NC(=O)c2cc(CN3CCN(C)CC3)cc(C(F)(F)F)c2)cc1CNc1cncnc1` [Example 9, N-(4-methyl-3-((pyrimidin-5-ylamino)methyl)phenyl)-3-((4-methylpiperazin-1-yl)methyl)-5-(trifluoromethyl)benzamide], the pKi on DDR2 and on DDR1 was above 7.52 in each case.

`Cc1cn(-c2cc(NC(=O)c3ccc(C(F)F)c(CNc4cncnc4)c3)cc(C(F)(F)F)c2)cn1` [Example 36, 4-(difluoromethyl)-N-(3-(4-methyl-1H-imidazol-1-yl)-5-(trifluoromethyl)phenyl)-3-((pyrimidin-5-ylamino)methyl)benzamide]: the negative logarithm of the Ki (pKi) on DDR2 and at DDR1 was above 7.52 each time.

Take `Cc1ccc(C(=O)Nc2cc(CN3CCN(C)CC3)cc(C(F)(F)F)c2)cc1CNC(=O)c1cnc2ccccn12` [Example 21, N-(2-methyl-5-((3-((4-methylpiperazin-1-yl)methyl)-5-(trifluoromethyl)phenyl)carbamoyl)benzyl)imidazo[1,2-a]pyridine-3-carboxamide]: the negative-log Ki (pKi) at DDR2 and at DDR1 was above 7.52 each time.

Consider `Cc1ccc(NC(=O)c2cc(CN3CCN(C)CC3)cc(C(F)(F)F)c2)cc1CNCc1cnc2ccccn12` [Example 13, N-(3-(((imidazo[1,2-a]pyridin-3-ylmethyl)amino)methyl)-4-methylphenyl)-3-((4-methylpiperazin-1-yl)methyl)-5-(trifluoromethyl)benzamide], for which the pKi on DDR2 and at DDR1 was above 7.52 in each case.

As to `Cc1cn(-c2cc(NC(=O)c3ccc(C)c(CNc4ccc5[nH]ncc5c4)c3)cc(C(F)(F)F)c2)cn1` [Example 4, 3-(((1H-indazol-5-yl)amino)methyl)-4-methyl-N-(3-(4-methyl-1H-imidazol-1-yl)-5-(trifluoromethyl)phenyl)benzamide], the negative-log Ki (pKi) at DDR2 and on DDR1 was 6.52 to 7.52 each time.

On to `CCCc1ccc(C(=O)Nc2cc(CN3CCN(C)CC3)cc(C(F)(F)F)c2)cc1CNc1cncnc1` [Example 29, N-(3-((4-methylpiperazin-1-yl)methyl)-5-(trifluoromethyl)phenyl)-4-propyl-3-((pyrimidin-5-ylamino)methyl)benzamide], for which the values for the pKi at DDR2 and at DDR1 were 6.52 to 7.52 and above 7.52, respectively.

Turning to `Cc1ccc(NC(=O)c2cc(CN3CCN(C)CC3)cc(C(F)(F)F)c2)cc1CNCc1cnc2[nH]ccc2c1` [Example 15, N-(3-((((1H-pyrrolo[2,3-b]pyridin-5-yl)methyl)amino)methyl)-4-methylphenyl)-3-((4-methylpiperazin-1-yl)methyl)-5-(trifluoromethyl)benzamide], the pKi at DDR2 and at DDR1 was 6.52 to 7.52 each time.

For `CCN(Cc1cc(C(=O)Nc2cc(-n3cnc(C)c3)cc(C(F)(F)F)c2)ccc1C)c1cnc2ccnn2c1` [Example 2, 3-((ethyl(pyrazolo[1,5-a]pyrimidin-6-yl)amino)methyl)-4-methyl-N-(3-(4-methyl-1H-imidazol-1-yl)-5-(trifluoromethyl)phenyl)benzamide], the negative logarithm of the Ki (pKi) was 6.00 to 6.52 at DDR2 and above 7.52 on DDR1.

Take `CCCc1ccc(C(=O)Nc2cc(CN3CCN(C)CC3)cc(C(F)(F)F)c2)cc1CNc1cnc2ccnn2c1` [Example 17, N-(3-((4-methylpiperazin-1-yl)methyl)-5-(trifluoromethyl)phenyl)-4-propyl-3-((pyrazolo[1,5-a]pyrimidin-6-ylamino)methyl)benzamide]: the negative logarithm of the Ki (pKi) at DDR2 and at DDR1 was 6.52 to 7.52 each time.
